Laboratory results: the SangsterLogP compilation

assay: method code SF-GLC, from DOI: 10.1007/bf00316585, PMID: 6732504

Row | SMILES | logP
1 | N#CCCO | -0.94
2 | CC(C)CCC#N | 1.54
3 | N#CCCl | 0.23
4 | CCCCCCCC#N | 2.75
5 | CCCC#N | 0.53
6 | N#CCCCl | 0.18
7 | C=CCC#N | 0.4
8 | CCCCCC#N | 1.66
9 | CCCCCCCCC#N | 3.12
10 | C=C(C)C#N | 0.68
11 | CC(C)C#N | 0.46
12 | N#CCCCCl | 0.56
